Tests used:
cultured rat astrocytes [1] = assay: Living-cell staining and morphology with calcein-AM after H2O2; format: cell-based; conditions: ODN 0.1 nM pretreatment 10 min, then 1 h 300 µM H2O2; calcein-AM staining
Experimental: (§1) Secondary cultures of rat cortical astrocytes were prepared as previously described [64]with minor modifications. Briefly, cerebral hemispheres from newborn Wistar rats were collected in DMEM/F12 (2∶1; v/v) culture medium supplemented with 2 mM L-glutamine, 1‰ insulin, 5 mM HEPES, 0.4% glucose and 1% of the antibiotic-antimycotic solution. The tissues were dissociated mechanically with a syringe equipped with a 1-mm gauge needle, and filtered through a 100-µm sieve (Falcon, Franklin Lakes, NJ, USA). Dissociated cells were resuspended in culture medium supplemented with 10% FBS, plated in 175-cm^2 flasks (Greiner Bio-one GmbH, Frickenhausen, Germany) and incubated at 37°C in a 5% CO2/[…] atmosphere. When cultures were confluent, astrocytes were isolated by shaking overnight the flasks on an orbital agitator. Adhesive cells were detached by trypsination and preplated for 5 min to discard contaminating microglial cells. […]
Cultured cells were incubated at 37°C with fresh serum-free culture medium in the absence or presence of H2O2 and/or ODN for 1 h. Cells were then incubated for 10 min at 37°C with 0.3 µg/ml calcein-AM (producing green fluorescence in living cells), rinsed twice with culture medium without probe and examined on an inverted microscope (Leica, Heidelberg, Germany) equipped with a double pass filter.

[2] = test system: mitochondria of cultured astrocytes; assay: Mitochondrial membrane potential, JC-1 probe; format: cell-based, rat; conditions: ODN 0.1 nM, 10 min pretreatment, then 1 h 300 µM H2O2
Experimental: as §1, with “cells. Then, the non-adhering astrocytes were harvested and plated on 35-mm hydrophilic surface Petri dishes at a density of 3×10^5 cells/ml.” for “cells.”
Cells seeded into 24-well plates were subjected to various treatments, incubated in the presence of the JC-1 probe (3 µl/ml) at 37°C for 15 min and then washed twice with PBS. Mitochondrial integrity was assessed with the JC-1 probe. […]

Bcl-2 = Bcl-2 mRNA level, quantitative RT-PCR; format: cell-based, rat; conditions: ODN 0.1 nM
Experimental: as §1, with “cells. Then, the non-adhering astrocytes were harvested and plated on 35-mm hydrophilic surface Petri dishes at a density of 3×10^5 cells/ml.” for “cells.”
Cultured cells were incubated at 37°C for 1 h with fresh serum-free medium in the absence or presence of test substances. […] The amount of Bax and Bcl-2 cDNA in each sample was calculated by the comparative threshold cycle (Ct) method and expressed as 2^exp(−ΔΔCt) using glyceraldehyde-3-phosphate dehydrogenase as an internal control.

[3] = test system: glutathione (GSH) in cultured astrocytes; assay: Intracellular glutathione content, mBCl fluorescence; format: cell-based, rat
Experimental: Secondary cultures of rat cortical astrocytes were prepared as previously described [64]with minor modifications. Briefly, cerebral hemispheres from newborn Wistar rats were collected in DMEM/F12 (2∶1; v/v) culture medium supplemented with 2 mM L-glutamine, 1‰ insulin, 5 mM HEPES, 0.4% glucose and 1% of the antibiotic-antimycotic solution. The tissues were dissociated mechanically with a syringe equipped with a 1-mm gauge needle, and filtered through a 100-µm sieve (Falcon, Franklin Lakes, NJ, USA). Dissociated cells were resuspended in culture medium supplemented with 10% FBS, plated in 175-cm^2 flasks (Greiner Bio-one GmbH, Frickenhausen, Germany) and incubated at 37°C in a 5% CO2/[…] atmosphere. When cultures were confluent, astrocytes were isolated by shaking overnight the flasks on an orbital agitator. Adhesive cells were detached by trypsination and preplated for 5 min to discard contaminating microglial cells. Then, the non-adhering astrocytes were harvested and plated on 35-mm hydrophilic surface Petri dishes at a density of 3×10^5 cells/ml. For measurement of cell survival, caspase-3 activity and mitochondrial activity, cells were plated in hydrophilic surface 24-well plates at a density of 8×10^4 cells/ml. The cells were incubated at 37°C in a humid atmosphere (5% CO2). After 5 days (DIV5), more than 99% of the cells were labeled with antibodies against glial fibrillary acidic protein [65]. All experiments were performed on 5- to 7-day-old secondary cultures.
Reduced GSH was measured by using the thiol-reactive probe mBCl. At the end of the treatment period, the culture medium was removed and the cells were incubated with the mBCl probe (40 µM) at 37°C for 30 min and then washed twice with PBS. Fluorescence intensity was measured with excitation at 360 nm and emission at 485 nm, using a microplate reader (Bio-Tek FLx 800).

cultured rat astrocytes [4] = conditions: ODN 0.1 nM, 300 µM H2O2; cited from earlier work
Experimental: In order to determine the receptor involved in the protective effect of ODN, we have first examined the dose- and the time-course effect of the peptide on detrimental action of H2O2. The protective action of ODN was concentration-dependent for doses ranging from 1 fM to 0.1 nM (Figure 1A). […] The protectiv ...

caspase-3 = test system: caspase-3; set-up: method as in PMID 21599667; conditions: subnanomolar concentrations of ODN, cultured astrocytes; cited from earlier work

## ODN: octadecaneuropeptide, endozepine derived from diazepam-binding inhibitor; endogenous ligand of central-type benzodiazepine and metabotropic receptors; synthesized by Fmoc procedure (QATVGDVNTDRPGLLDLK; Octadecaneuropeptide; UniProt P11030 34-51, looked up)
Cultured rat astrocytes [1]
  effect on H2O2-induced morphological changes and loss of calcein labeling: totally prevented the deleterious effects of H2O2
[2]
  effect on H2O2-induced alteration of the mitochondrial membrane potential: suppressed this deleterious effect of H2O2 on the mitochondrial membrane potential
Bcl-2; 10 min pre-incubation, 1 h 300 µM H2O2
  effect on H2O2-induced inhibition of Bcl-2 expression: suppressed the inhibitory effect of H2O2 on Bcl-2 expression
Bcl-2; 1 h, RT-PCR, 6 wells from three cultures
  effect on Bcl-2 mRNA levels, peptide alone: induced an increase of Bcl-2 mRNA levels by itself
[3]; ODN 0.1 nM pretreatment, 1 h 300 µM H2O2
  effect on H2O2-induced depletion of GSH (mBCl fluorescence): prevented the depletion of mBCl fluorescence induced by H2O2
[3]; graded ODN 1 fM to 0.1 nM, 1 h
  effect on intracellular GSH content (mBCl fluorescence), peptide alone: dose-related increase in mBCl fluorescence intensity
Cultured rat astrocytes [4]
  effect on H2O2-induced astrocyte cell death: able to reverse the effect of 300 µM H2O2-induced astrocyte cell death
caspase-3
  effect on H2O2-induced caspase-3 activation: inhibit H2O2-induced caspase-3 activation
